Legend:
[1] = target: CSNK2A1 (Homo sapiens, UniProt P68400); test: cell-based; assay type: cell-based
[2] = target: CSNK2A2 (Homo sapiens, UniProt P19784); test: cell-based
[3] = system: MHV-nLuc; test: microbe, parasite or virus in culture; assay type: cell-based, mouse hepatitis virus (MHV); conditions: Murine coronavirus, 10 h, read-out: MHV replication (pIC50) (converted)
[4] = system: SARS-CoV-2 spike protein uptake; assay type: cell-based, human
[5] = system: DBT cells; conditions: LDH assay, 10 h, concentrations up to 10 μM
[6] = system: SARS-CoV-2; conditions: African green monkey kidney epithelial Vero cells infected with SARS-CoV-2; ref [18]; cited from earlier work
[7] = system: SARS-CoV-2; conditions: human lung epithelial A549-ACE2 cells; ref [18]; cited from earlier work
[8] = system: Vero cells; conditions: ref [18]; cited from earlier work
[9] = system: A549-ACE2 cells; conditions: ref [18]; cited from earlier work

Chain of CSNK2A2 (P19784 whole entry): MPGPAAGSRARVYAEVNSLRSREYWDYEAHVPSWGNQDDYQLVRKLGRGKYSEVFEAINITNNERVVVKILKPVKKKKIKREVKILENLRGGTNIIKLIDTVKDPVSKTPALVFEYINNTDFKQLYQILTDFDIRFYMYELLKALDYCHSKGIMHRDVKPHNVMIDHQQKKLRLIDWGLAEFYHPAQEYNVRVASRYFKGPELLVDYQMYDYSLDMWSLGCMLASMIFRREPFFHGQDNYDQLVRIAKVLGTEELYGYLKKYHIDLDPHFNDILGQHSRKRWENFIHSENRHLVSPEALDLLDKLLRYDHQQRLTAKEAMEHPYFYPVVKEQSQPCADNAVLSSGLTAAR
Chain of CSNK2A1 (P68400 whole entry): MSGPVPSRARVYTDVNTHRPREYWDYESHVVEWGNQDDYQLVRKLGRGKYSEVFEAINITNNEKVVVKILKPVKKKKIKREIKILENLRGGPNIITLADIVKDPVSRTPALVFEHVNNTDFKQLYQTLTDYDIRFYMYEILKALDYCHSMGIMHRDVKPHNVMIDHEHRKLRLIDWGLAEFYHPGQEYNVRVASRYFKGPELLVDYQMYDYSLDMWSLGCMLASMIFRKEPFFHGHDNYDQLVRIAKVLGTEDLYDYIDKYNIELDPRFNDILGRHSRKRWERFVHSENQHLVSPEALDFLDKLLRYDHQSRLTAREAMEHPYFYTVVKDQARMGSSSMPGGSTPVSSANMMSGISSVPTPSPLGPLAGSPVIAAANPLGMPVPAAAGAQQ

| SMILES | IC50 [1] | IC50 [2] | also measured |
| --- | --- | --- | --- |
| CCC(=O)Nc1cc(Nc2cc(NC3CC3)n3ncc(C#N)c3n2)ccc1N(C)CCN [Compound 9] | 3.98 nM |  |  |
| CCC(=O)Nc1cc(Nc2cc(NC3CC3)n3ncc(C#N)c3n2)ccc1N(C)CCN1CCCC1 [Compound 11] | 100 nM | 100 nM |  |
| CCC(=O)Nc1cc(Nc2cc(NC3CC3)n3ncc(C#N)c3n2)ccc1N(C)CCN1CCCCC1 [Compound 12] | 251 nM |  |  |
| CCC(=O)Nc1cc(Nc2cc(NC3CC3)n3ncc(C#N)c3n2)ccc1N1CCNCC1 [Compound 14] | 158 nM |  |  |
| CCC(=O)Nc1cc(Nc2cc(NC3CC3)n3ncc(C#N)c3n2)ccc1N1CCCC(NC)C1 (stereo not drawn) [Compound 15] | 2 nM | 15.8 nM | selectivity for CSNK2A1 over CSNK2A2 ([1]; from nanoBRET values): 6–8 fold |
| CC(=O)Nc1ccc2ccn(-c3cc(NC4CC(F)(F)C4)n4ncc(C#N)c4n3)c2c1 [Compound 18] | 39.8 nM | 100 nM |  |
| CC(=O)Nc1ccc2ccn(-c3cc(NC45CC(C4)C5)n4ncc(C#N)c4n3)c2c1 [Compound 19] | 158 nM | 79.4 nM |  |
| CC(=O)Nc1ccc2ccn(-c3cc(NC4(C)CC4)n4ncc(C#N)c4n3)c2c1 [Compound 20] | 501 nM | 1580 nM |  |
| CC(=O)Nc1ccc2ccn(-c3cc(NCC4CCOC4)n4ncc(C#N)c4n3)c2c1 (stereo not drawn) [Compound 25] | 31.6 nM | 251 nM |  |
| CC(=O)Nc1ccc2ccn(-c3cc(NCC4CCOCC4)n4ncc(C#N)c4n3)c2c1 [Compound 26] | 100 nM | 2000 nM |  |
| CC(=O)Nc1ccc2ccn(-c3cc(NC4CCN(C(C)=O)CC4)n4ncc(C#N)c4n3)c2c1 [Compound 28] | 63.1 nM | 398 nM |  |
| CC(=O)Nc1ccc2ccn(-c3cc(NCc4cnn(C)c4)n4ncc(C#N)c4n3)c2c1 [Compound 29] | 158 nM | 200 nM |  |
| CC(=O)Nc1ccc2ccn(-c3cc(N[C@H](C)C#N)n4ncc(C#N)c4n3)c2c1 [Compound 30] | 126 nM | 79.4 nM |  |
| CC(=O)Nc1ccc2ccn(-c3cc(Sc4ccccc4)n4ncc(C#N)c4n3)c2c1 [Compound 33] | 6310 nM | 6310 nM |  |
| CCC(=O)Nc1cc(Nc2cc(NC3CC3)n3ncc(C#N)c3n2)ccc1C [SGC-CK2–1] |  |  | IC50 [3]: 126 nM; decrease in spike protein uptake [4]: 70–80% |
| O=C(O)c1ccc2c(c1)nc(Nc1cccc(Cl)c1)c1ccncc12 [silmitasertib] |  |  | effect on cell viability [5]: no effect on cell viability; antiviral activity, SARS-CoV-2 (pIC50) [6]: 5.6; inhibition of SARS-CoV-2 infection (pIC50) [7]: < 5; cell toxicity [8]: cell toxicity at micromolar doses; cell toxicity [9]: cell toxicity at micromolar doses |
